# Assay results reported in US20240050510A1, “COMBINATION THERAPY COMPRISING UNCARIA FOR TREATING ANXIETY AND DEPRESSION” (The Open University, priority 2020, published 2024).
# Experiments:
# [1] = literature; cited from earlier work
# ICR outbred mice [2] = assay: Elevated plus-maze (EPM), anxiety-like behavior in UCMS-stressed mice; assay type: in vivo; conditions: 3-week treatment (FIG. 2), compared to saline
# Protocol: Animals. ICR outbred mice (Envigo RMS (Harlen), Israel) were kept in the vivarium of the Psychobiological laboratory of the Open University, […] Medical Center, Jerusalem. Mice were kept on a reversed 12-hour light/dark cycle and given ad libitum access to food and water. All experiments were performed during the dark phase under red light (7:00-19:00). All experiments were approved by the Committee for animal care and use according to the NIH guidelines. Drugs administration. […] Unpredictable chronic mild stress (UCMS). Mice were exposed to UCMS for 4 weeks at the age of 4 weeks as previously described (Malkoff, A., et al. (2008) J Neural Transm 115, 1563-1571). Elevated plus-maze (EPM) and Open field test (OFT). Anxiety-like behavior was assessed using EPM and OFT as previously described ([…]. (2009) Brain Res 1256, 138-148). Locomotion was assessed using the OFT and expressed as the percentage of time that the mouse moved in a velocity above 0.1 pixel/sec. Data analysis and interpretation of results. Data was analyzed using a one-way ANOVA with Treatment as a between subject variable, performed on the time spent in the center area in the Novel Open Field and the time spent in the open arms for anxiety like behavior, and depressive like behavior was measured as the time the animal spent floating without moving. […]
# BDNF = assay: Hippocampal BDNF levels by sandwich ELISA; assay type: in vivo, mice; conditions: 3-week treatment (FIG. 3B), compared to saline
# Protocol: Animals. ICR outbred mice (Envigo RMS (Harlen), Israel) were kept in the vivarium of the Psychobiological laboratory of the Open University, […] Medical Center, Jerusalem. Mice were kept on a reversed 12-hour light/dark cycle and given ad libitum access to food and water. All experiments were performed during the dark phase under red light (7:00-19:00). All experiments were approved by the Committee for animal care and use according to the NIH guidelines. Drugs administration. […] Assessment of BDNF levels. Hippocampus tissue samples are prepared as previously described ([…]., et al., European neuropsychopharmacology, 2006. 16(5): p. 329-339). Briefly, tissues were homogenized in cold extraction Tris-buffer and then acidified with 0.1 M HCl (pH 3.0) for 15 min at room temperature. Homogenates were neutralized with 0.1 M NaOH (pH 7.6) and centrifuged in a microcentrifuge at 7,000 g for 10 min. BDNF levels in the supernatant were evaluated using sandwich ELISA as previously described (Baker-Herman, T. L., et al., Nat Neurosci, 2004. 7(1): p. 48-55).
# ICR outbred mice [3] = assay: Open field test (OFT), anxiety-like behavior; assay type: in vivo; conditions: 1-week treatment (FIG. 1C)
# Protocol: Animals. ICR outbred mice (Envigo RMS (Harlen), Israel) were kept in the vivarium of the Psychobiological laboratory of the Open University, […] Medical Center, Jerusalem. Mice were kept on a reversed 12-hour light/dark cycle and given ad libitum access to food and water. All experiments were performed during the dark phase under red light (7:00-19:00). All experiments were approved by the Committee for animal care and use according to the NIH guidelines. Drugs administration. […] Unpredictable chronic mild stress (UCMS). Mice were exposed to UCMS for 4 weeks at the age of 4 weeks as previously described (Malkoff, A., et al. (2008) J Neural Transm 115, 1563-1571). Elevated plus-maze (EPM) and Open field test (OFT). Anxiety-like behavior was assessed using EPM and OFT as previously described ([…]. (2009) Brain Res 1256, 138-148). Locomotion was assessed using the OFT and expressed as the percentage of time that the mouse moved in a velocity above 0.1 pixel/sec.
# ICR outbred mice [4] = assay: Novel Open Field (NOF), anxiety-like behavior; assay type: in vivo; conditions: 3 weeks of treatment after 30 days UCMS (FIG. 4B); in comparison to the Saline and UR groups
# Protocol: Animals. ICR outbred mice (Envigo RMS (Harlen), Israel) were kept in the vivarium of the Psychobiological laboratory of the Open University, […] Medical Center, Jerusalem. Mice were kept on a reversed 12-hour light/dark cycle and given ad libitum access to food and water. All experiments were performed during the dark phase under red light (7:00-19:00). All experiments were approved by the Committee for animal care and use according to the NIH guidelines. Drugs administration. […] Unpredictable chronic mild stress (UCMS). Mice were exposed to UCMS for 4 weeks at the age of 4 weeks as previously described (Malkoff, A., et al. (2008) J Neural Transm 115, 1563-1571). Novel Open Field (NOF). The novel open field consists of an empty square arena (40×40×40 cm) divided into 36 identical squares and surrounded by Perspex opaque walls. […] Mice were placed in the center of the arena and their behavior was video recorded for a total of 5 min, and later coded by an observer blind to the mice's treatment. Anxiety-like behavior was measured by the time spent in the peripheral area, i.e., the peripheral ring of the arena (6.67 cm from each wall, Walsh & Cummins, (1976) Psychological Bulletin, 83 (3), 482-504). […] Effects were evaluated in independent mice groups following 1 and 3 weeks of treatment. […]
# ICR outbred mice [5] = assay: Forced Swim Test (FST), depressive-like behavior; assay type: in vivo; conditions: 3 week treatment after 30 days UCMS (FIG. 5B); in comparison to the NHT and Saline groups
# Protocol: Animals. ICR outbred mice (Envigo RMS (Harlen), Israel) were kept in the vivarium of the Psychobiological laboratory of the Open University, […] Medical Center, Jerusalem. Mice were kept on a reversed 12-hour light/dark cycle and given ad libitum access to food and water. All experiments were performed during the dark phase under red light (7:00-19:00). All experiments were approved by the Committee for animal care and use according to the NIH guidelines. Drugs administration. […] Unpredictable chronic mild stress (UCMS). Mice were exposed to UCMS for 4 weeks at the age of 4 weeks as previously described (Malkoff, A., et al. (2008) J Neural Transm 115, 1563-1571). Forced Swim Test (FST). […] Depression like behavior was measured as the time the animal spent floated without moving, and swimming was defined as the time the animal spent engaged in active swimming or struggle movement. Effects were evaluated in independent mice groups following 1 and 3 weeks of treatment. The test was recorded by Viewer III (BIOB SERVE) software. […] Data was analyzed using a one-way ANOVA with Treatment as a between subject variable, performed on the time spent in the center area in the Novel Open Field and the time spent in the open arms for anxiety like behavior, and depressive like behavior was measured as the time the animal spent floating without moving. […]
Structure (SMILES),isolation-induced increased aggressiveness and decreased sociality [1],anxiety-like behavior in the EPM (time spent in the open arms) (ICR outbred mice [2]),hippocampal BDNF levels (BDNF),anxiety-like behavior in the OFT (ICR outbred mice [3]),"time in the center of the arena, novel open field (ICR outbred mice [4])",time floated-immobile in the FST (depressive-like behavior) (ICR outbred mice [5])
"C/C=C1/CN2CCc3c([nH]c4ccccc34)[C@@H]2C[C@@H]1/C(=C/OC)C(=O)OC [GM, geissoschizine methyl ether]",ameliorated,,,,,
CN(C)CCC[C@@]1(c2ccc(F)cc2)OCc2cc(C#N)ccc21 [escitalopram],,reduced anxiety-like behavior,increased BDNF levels,ineffective,spent significantly more time in the center of the arena,spent significantly less time floated-immobile
